Data from ChEMBL document CHEMBL1129227, “Synthesis and in vitro cytotoxic activity of novel hexahydro-2H-pyrido[1,2-b]isoquinolines against human brain tumor cell lines” (1997).

How the values were obtained:
Type in all cases: functional
Conditions in all cases: read-out: LC50 (the source's name)
D283 Med = assay: Compound was evaluated for the in vitro cytotoxicity against […] Med human brain medulloblastoma tumor cell line
T98G = assay: Compound was evaluated for the in vitro cytotoxicity against T98G human glioblastoma cell line
A 172 = assay: Compound was evaluated for the in vitro cytotoxicity against A-172 human glioblastoma cell line

SMILES	CC50 (D283 Med) [µM]	CC50 (T98G) [µM]	CC50 (A 172) [µM]
C=C(C)[C@H]1CCN2Cc3ccccc3C[C@H]2[C@@H]1NCc1ccccc1	53	43	58
C=C(C)[C@H]1CCN2Cc3ccccc3C[C@H]2[C@H]1O	143		158
C=C(C)[C@H]1CCN2Cc3ccccc3C[C@H]2[C@H]1NCc1ccc(Cl)cc1	29	42	55
C=C(C)[C@H]1CCN2Cc3ccccc3C[C@H]2[C@@H]1NCC(F)(F)F	40	172	157
CC(C)[C@H]1CCN2Cc3ccccc3C[C@H]2[C@H]1/N=C/c1ccccc1		222	226
CC(C)[C@H]1CCN2Cc3ccccc3C[C@H]2[C@H]1/N=C/c1ccc(Cl)cc1	50	45	97
